The structures appear in SMILES notation. Several values for one entry are separate records, joined by “and”; a condition that tells them apart may be missing. Equal entries are not always repeated. Where two headings read alike, the source gives them in different places. Bridge positions count the residues as written; N and C are the ends. Square brackets hold non-standard residues; d marks the D form. Peptide text beside a SMILES is read from it. * marks the point of attachment. DOTA = O=C(O)CN1CCN(CC(=O)O)CCN(CC(=O)*)CCN(CC(=O)O)CC1; dPhe(4-NHCONH2) = NC(=O)Nc1ccc(C[C@@H](N)C(=O)O)cc1; Phe(4-NHCONH2) = NC(=O)Nc1ccc(C[C@H](N)C(=O)O)cc1; dTrp(5-F) = N[C@H](Cc1c[nH]c2ccc(F)cc12)C(=O)O; Phe(4-Cl) = N[C@@H](Cc1ccc(Cl)cc1)C(=O)O; 2Nal = N[C@@H](Cc1ccc2ccccc2c1)C(=O)O

The target in one assay is T1, hSSTR1 (Homo sapiens, UniProt P30872).
T1 construct: expressed in transfected cells; host or cells: CHO-K1 or CCL39 cells
The assay is described as follows: Receptor autoradiography, displacement of 125I-[Leu8,D-Trp22,Tyr25]-SRIF-28 from membrane pellet sections. The note with it: for IC50: Table 3, mean ± SEM when N ≧ 3, read-out: sst1 binding affinity (IC50). It counts as binding. As to the method:
(§1) Generally, recombinant cells expressing the receptor are washed and homogenized to prepare a crude protein homogenate in a suitable buffer. In a typical assay, an amount of protein from the cell homogenate is placed into a small volume of an appropriate assay buffer at an appropriate pH. Candidate substances, such as potential SRIF agonists and antagonists, are added to the admixture in convenient concentrations, and the interaction between the candidate substance and the receptor polypeptide is monitored.
(§2) In vitro Bioassay: The effects of the various somatostatin analogs were tested in vitro for their ability to bind to isolated cloned receptors expressed on CHO-K1 cells and CCL39 cells. The molecular cloning of the genes encoding multiple somatostatin receptor subtypes permitted the individual expression of these receptors in mammalian cells and the characterization of their respective pharmacological profiles.
(§3) CHO-K1 cells were grown in Ham's F-12 medium, and CCL39 cells were grown in Dulbecco's modified Eagle's medium/Ham's F-12(1:1) mix, supplemented with 10% fetal bovine serum, 100 U/ml penicillin and 100 μg/ml streptomycin, in humidified air containing 5% CO2 at 37° C. Cells were washed twice with and scraped into ice-cold 0.05 M Tris-HCl (pH 7.4), collected by centrifugation, and homogenized using a rotor/stator/system in the same buffer. After centrifugation at 120 g for 5 min at 4° C., the supernatant was collected and centrifuged again at 48,000 g for 30 min at 4° C. The resulting pellet was resuspended in ice-cold Tris buffer, transferred into a microfuge tube, and centrifuged at 20,000 g for 15 min at 4° C. After withdrawal of the supernatant, the membrane pellet was stored at −80° C.
(§4) Receptor autoradiography was performed on 20 μm thick cryostat sections of the membrane pellets, mounted on microscope slides, and then stored at −20° C. […] Increasing concentrations of the unlabeled peptide were used ranging from 0.1-1000 nM. […] IC50 values were calculated after quantification of the data using a computer-assisted image processing system as known in this art.
(§5) The numbers in parentheses indicate the number of times the particular binding test was carried out.
(§6) Receptor autoradiography. Cell membrane pellets were prepared as previously described, and stored at −80° C. Receptor autoradiography was performed on 20-μm thick cryostat (Microm HM 500, Walldorf, Germany) sections of the membrane pellets, mounted on microscope slides, and then stored at −20° C. […] After a brief dip in distilled water to remove excess salts, the sections were dried quickly and exposed for 1 week to Kodak BioMax MR film. IC50 values were calculated after quantification of the data using a computer-assisted image processing system as described previously. […] (Reubi, J. C. “In vitro identification of vasoactive intestinal peptide receptors in human tumors: Implications for tumor imaging.” J. Nucl. Med. 1995, 36, 1846-1853).
(§7) To investigate their ssts binding properties, the peptides were tested for their ability to bind to cryostat sections from membrane pellets of cells expressing the five human ssts (Table 3).
(In general: In a radioligand displacement assay an active substance lowers the binding of a labelled ligand.)

The next assay has as its target T2, hSSTR2 (Homo sapiens, UniProt P30874).
T2 construct: expressed in transfected cells; host or cells: CHO-K1 or CCL39 cells
Described as above. It is filed as binding. As to the method:
as §1, §2, §3, §4, §5, §6, §7

Another assay deals with T3, hSSTR3 (Homo sapiens, UniProt P32745).
T3 construct: expressed in transfected cells; host or cells: CHO-K1 or CCL39 cells
Described as above. It is filed as binding. The conditions noted are these: for IC50: Table 3, mean ± SEM when N ≧ 3, read-out: sst3 binding affinity (IC50). As to the method:
as §1, §2, §3, §4, §5, §6, §7

The target in the next assay is T4, hSSTR4 (Homo sapiens, UniProt P31391).
T4 construct: expressed in transfected cells; host or cells: CHO-K1 or CCL39 cells
The assay is described as above. It counts as binding. The note with it: for IC50: Table 3, mean ± SEM when N ≧ 3, read-out: sst4 binding affinity (IC50). As to the method: as §1, §2, §3, §4, §5, §6, §7

The target in another assay is T5, hSSTR5 (Homo sapiens, UniProt P35346).
T5 construct: expressed in transfected cells; host or cells: CHO-K1 or CCL39 cells
The assay is described as above. The conditions noted are these: for IC50: Table 3, mean ± SEM when N ≧ 3, read-out: sst5 binding affinity (IC50). It counts as binding. As to the method:
as §1, §2, §3, §4, §5, §6, §7

The target in the next assay is T6, human sst2A receptor (Homo sapiens, UniProt P30874).
T6 construct: expressed in transfected cells; host or cells: HEK293 (HEK-sst2)
The assay is described as follows: Immunofluorescence-based sst2 internalization assay in HEK-sst2 cells. It is filed as cell-based. The conditions noted are these: n ≧ 2. As to the method:
Immunofluorescence-based sst2 Internalization Assay. Immunofluorescence microscopy-based internalization assay for sst2 was performed with HEK-sst2 using the sst2-specific antibody R2-88 as described elsewhere herein. HEK-sst2 cells were treated either with vehicle alone, the sst2 agonist [Tyr^3]-octreotide at a concentration of 100 nM, [Tyr^3]-octreotide at a concentration of 100 nM in the presence of an excess of the SRIF analogues to be tested (100 times the concentration of [Tyr^3]-octreotide), or with the SRIF analogues to be tested alone at a concentration of 10 μM, and then processed for immunofluorescence microscopy as described previously.

The target in the next assay is sst2 (Homo sapiens, UniProt P30874). The assay is described as follows: Calcium release assay in HEK-sst2 cells (Fluo-4NW). It is filed as cell-based. More on the design: expressed in transfected cells; host or cells: HEK293 (HEK-sst2). The note with it: n ≧ 2. As to the method:
Calcium release assay. Intracellular calcium release was measured in HEK-sst2 using the Fluo-4NW Calcium Assay kit as described previously (Magrys, et al. “The role of anti-alpha-enolase autoantibodies in pathogenicity of autoimmune-mediated retinopathy.” J. Clin. Immunol. 2007, 27, 181-192; Michel et al. “The Nef protein of human immunodeficiency virus is a broad-spectrum modulator of chemokine receptor cell surface levels that acts independently of classical motifs for receptor endocytosis and Galphai signaling.” Mol. Biol. Cell. 2006, 17, 3578-3590). In brief, HEK-sst2 cells were seeded (25,000 cells per well) in poly-D-lysine (20 μg/mL) coated 96 well plates and cultured for 1 day at 37° C. and 5% CO2 in culture medium. At the day of the experiment, the cells were washed with assay buffer (1×HBSS, 20 mM HEPES) containing 2.5 mM probenecid, and then loaded with 100 μL/well Fluo-4NW dye in assay buffer containing 2.5 mM probenecid for 30 min at 37° C. and 5% CO2 and then for further 30 min at room temperature. To measure the intracellular calcium mobilization after stimulation with the SRIF analogues to be tested, the dye-loaded cells were transferred to a SpectraMax M2^e (Molecular Devices, Sunnyvale, Calif.). Intracellular calcium mobilization was recorded in a kinetic for 60 sec at room temperature monitoring fluorescence emission at 520 nm (with λex=485 nm) in the presence of the analogues at the concentrations indicated. Maximum fluorescence (Fmax) was measured after the addition of 25 μM ionomycin. Baseline (control) measurements were taken for dye-loaded, untreated cells. Data are shown as percentage of Fmax (% Fmax) as reported previously. (Magrys, et al. J. Clin. Immunol. 2007, 27, 181-192; Michel et al. Mol. Biol. Cell. 2006, 17, 3578-3590). All experiments were repeated at least three times in triplicate.

Setting [1] is: Table 3, mean ± SEM when N ≧ 3, read-out: sst2 binding affinity (IC50).

T5 sequence (P35346 whole entry): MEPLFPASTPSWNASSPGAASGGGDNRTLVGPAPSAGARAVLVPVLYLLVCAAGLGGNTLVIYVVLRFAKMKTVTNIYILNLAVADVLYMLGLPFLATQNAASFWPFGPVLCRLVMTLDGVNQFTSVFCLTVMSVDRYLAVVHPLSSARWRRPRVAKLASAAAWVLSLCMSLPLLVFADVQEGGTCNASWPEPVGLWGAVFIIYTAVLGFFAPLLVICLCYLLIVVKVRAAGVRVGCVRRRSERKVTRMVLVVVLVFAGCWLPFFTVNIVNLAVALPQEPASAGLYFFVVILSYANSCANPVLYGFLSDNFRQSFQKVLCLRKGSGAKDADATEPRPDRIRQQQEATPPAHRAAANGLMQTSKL
T4 sequence (P31391 whole entry): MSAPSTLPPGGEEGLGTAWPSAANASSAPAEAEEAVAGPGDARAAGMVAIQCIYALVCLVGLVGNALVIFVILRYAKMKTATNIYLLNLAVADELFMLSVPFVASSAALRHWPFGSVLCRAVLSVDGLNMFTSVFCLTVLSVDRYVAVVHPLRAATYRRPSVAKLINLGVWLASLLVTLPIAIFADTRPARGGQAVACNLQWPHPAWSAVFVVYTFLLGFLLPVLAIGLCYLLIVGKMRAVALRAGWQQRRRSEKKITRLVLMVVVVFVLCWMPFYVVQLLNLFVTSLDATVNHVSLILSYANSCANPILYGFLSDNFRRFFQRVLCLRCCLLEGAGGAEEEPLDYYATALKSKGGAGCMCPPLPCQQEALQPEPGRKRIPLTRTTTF
T2 sequence (P30874 whole entry): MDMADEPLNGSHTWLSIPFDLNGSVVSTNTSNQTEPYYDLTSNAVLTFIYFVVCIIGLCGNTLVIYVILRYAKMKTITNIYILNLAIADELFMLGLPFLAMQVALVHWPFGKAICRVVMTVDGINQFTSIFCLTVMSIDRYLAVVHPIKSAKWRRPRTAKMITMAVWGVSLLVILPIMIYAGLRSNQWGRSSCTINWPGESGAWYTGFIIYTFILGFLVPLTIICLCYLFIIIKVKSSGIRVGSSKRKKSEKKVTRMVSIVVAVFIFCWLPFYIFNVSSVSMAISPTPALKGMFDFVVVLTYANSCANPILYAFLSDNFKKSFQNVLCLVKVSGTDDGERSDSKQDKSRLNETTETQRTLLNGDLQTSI
Chain of sst2 (P30874 whole entry): as above
T6 sequence (P30874 whole entry): as above
T3 sequence (P32745 whole entry): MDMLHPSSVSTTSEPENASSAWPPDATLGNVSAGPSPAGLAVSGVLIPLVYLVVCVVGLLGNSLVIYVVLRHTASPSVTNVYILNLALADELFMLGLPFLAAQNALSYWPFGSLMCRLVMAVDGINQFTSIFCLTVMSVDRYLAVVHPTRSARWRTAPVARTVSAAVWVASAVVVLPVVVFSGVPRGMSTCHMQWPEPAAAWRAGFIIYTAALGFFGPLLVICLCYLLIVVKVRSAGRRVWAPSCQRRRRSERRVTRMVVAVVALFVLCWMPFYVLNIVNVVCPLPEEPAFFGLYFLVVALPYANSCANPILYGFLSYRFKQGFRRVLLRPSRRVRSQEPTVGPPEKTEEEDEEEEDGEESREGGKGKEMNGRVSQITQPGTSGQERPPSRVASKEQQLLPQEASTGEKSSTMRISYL
T1 sequence (P30872 whole entry): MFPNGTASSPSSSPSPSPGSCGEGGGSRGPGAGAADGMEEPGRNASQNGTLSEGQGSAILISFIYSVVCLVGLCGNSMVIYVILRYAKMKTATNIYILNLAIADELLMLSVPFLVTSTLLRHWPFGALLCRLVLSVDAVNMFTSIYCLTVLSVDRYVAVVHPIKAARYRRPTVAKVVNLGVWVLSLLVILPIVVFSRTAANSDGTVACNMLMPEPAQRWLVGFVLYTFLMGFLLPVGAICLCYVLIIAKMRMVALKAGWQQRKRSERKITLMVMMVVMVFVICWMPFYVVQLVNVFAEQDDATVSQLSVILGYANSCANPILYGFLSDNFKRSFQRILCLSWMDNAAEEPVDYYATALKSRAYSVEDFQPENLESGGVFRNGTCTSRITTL

Regarding `C[C@@H](O)[C@@H]1NC(=O)[C@H](CCCCN)NC(=O)[C@@H](Cc2ccc(NC(N)=O)cc2)NC(=O)[C@H](Cc2ccc(O)cc2)NC(=O)[C@H](NC(=O)[C@H](Cc2ccc(Cl)cc2)NC(=O)CN2CCN(CC(=O)O)CCN(CC(=O)O)CCN(CC(=O)O)CC2)CSSC[C@@H](C(=O)N[C@@H](Cc2ccc3ccccc3c2)C(N)=O)NC1=O` [Peptide No. 28, DOTA-Cpa-c[DCys-Tyr-DAph(Cbm)-Lys-Thr-Cys]-2Nal-NH2] ({DOTA}-[Phe(4-Cl)][dC]Y[dPhe(4-NHCONH2)]KTC[2Nal]-NH2; disulfide 2-7), the “effect on binding of the SRIF-28 radioligand to SSTR1” value at hSSTR1 (100 nM) is recorded as “minimal effects”. Further, the IC50 on hSSTR2 (Table 1, inhibition of radioligand binding to cloned human receptor, read-out: IC50 hSSTR2) was ~1.8 nM and 1.8 nM. Also, the “effect on binding of the SRIF-28 radioligand to SSTR3” value at hSSTR3 (100 nM) is on record as “minimal effects”. At hSSTR4 (100 nM), the “effect on binding of the SRIF-28 radioligand to SSTR4” value is “minimal effects”. The “effect on binding of the SRIF-28 radioligand to SSTR5” value at hSSTR5 (100 nM) was “minimal effects”. Further, the “sst2-internalization tested in vitro in HEK-sst2 cells (function)” value (from here on “sst2-internalization tested in vitro”) on human sst2A receptor is “Antagonist”. At sst2, the “Calcium release tested in vitro in HEK-sst2 cells (function)” value (shortened to “Calcium release tested in vitro”) is listed as “Antagonist”.
With `C[C@@H](O)[C@@H]1NC(=O)[C@H](CCCCN)NC(=O)[C@@H](Cc2c[nH]c3ccccc23)NC(=O)[C@H](Cc2ccc(O)cc2)NC(=O)[C@H](NC(=O)[C@H](Cc2ccc([N+](=O)[O-])cc2)NC(=O)CN2CCN(CC(=O)O)CCN(CC(=O)O)CCN(CC(=O)O)CC2)CSSC[C@@H](C(=O)N[C@H](Cc2ccc(O)cc2)C(N)=O)NC1=O` [compound 2, DOTA-pNO2Phe-c[DCys-Tyr-DTrp-Lys-Thr-Cys]-DTyr-NH2], the IC50 is > 1000 nM on hSSTR1; 1.5 nM at hSSTR2 (setting [1]); > 1000 nM at hSSTR3; 287 ± 27 nM on hSSTR4; > 1000 nM at hSSTR5. For the same compound, the “sst2-internalization tested in vitro” value at human sst2A receptor is “Antagonist”. In addition, the “Calcium release tested in vitro” value at sst2 is recorded as “Antagonist”.
For `C[C@@H](O)[C@@H]1NC(=O)[C@H](CCCCN)NC(=O)[C@@H](Cc2c[nH]c3ccccc23)NC(=O)[C@H](Cc2ccc(NC(N)=O)cc2)NC(=O)[C@H](NC(=O)[C@H](Cc2ccc(Cl)cc2)NC(=O)CCNC(=O)CN2CCN(CC(=O)O)CCN(CC(=O)O)CCN(CC(=O)O)CC2)CSSC[C@@H](C(=O)N[C@@H](Cc2ccc3ccccc3c2)C(N)=O)NC1=O` [compound 15, DOTA-βAla-Cpa-c[DCys-Aph(Cbm)-DTrp-Lys-Thr-Cys]-2Nal-NH2], the IC50 was > 1000 nM on hSSTR1; 46 ± 13 nM on hSSTR2 (setting [1]); 124 ± 53 nM on hSSTR3; > 1000 nM on hSSTR4; > 1000 nM at hSSTR5. Further, the “sst2-internalization tested in vitro” value at human sst2A receptor is given as “Antagonist”. The “Calcium release tested in vitro” value on sst2 was “Antagonist”.
With `C[C@@H](O)[C@@H]1NC(=O)[C@H](CCCCN)NC(=O)[C@@H](Cc2c[nH]c3ccccc23)NC(=O)[C@H](Cc2ccc(NC(N)=O)cc2)NC(=O)[C@H](NC(=O)[C@@H](N)Cc2ccc(Cl)cc2)CSSC[C@@H](C(N)=O)NC1=O` [compound 17, H2N-Cpa-c[DCys-Aph(Cbm)-DTrp-Lys-Thr-Cys]-NH2] (H-[Phe(4-Cl)][dC][Phe(4-NHCONH2)][dW]KTC-NH2; disulfide 2-7), the IC50 was > 1000 nM at hSSTR1; 5.9 ± 1.8 nM at hSSTR2 (setting [1]); 138 ± 52 nM on hSSTR3; > 1000 nM on hSSTR4; 461 ± 106 nM on hSSTR5. The “sst2-internalization tested in vitro” value on human sst2A receptor is reported as “Antagonist”. For the same compound, the “Calcium release tested in vitro” value at sst2 is recorded as “Antagonist”.
With `C[C@@H](O)[C@@H]1NC(=O)[C@H](CCCCN)NC(=O)[C@@H](Cc2c[nH]c3ccc(F)cc23)NC(=O)[C@H](Cc2ccc(NC(N)=O)cc2)NC(=O)[C@H](NC(=O)[C@@H](N)Cc2ccc(Cl)cc2)CSSC[C@@H](C(=O)N[C@@H](Cc2ccc3ccccc3c2)C(N)=O)NC1=O` [compound 25, H2N-Cpa-c[DCys-Aph(Cbm)-5F-DTrp-Lys-Thr-Cys]-2Nal-NH2] (H-[Phe(4-Cl)][dC][Phe(4-NHCONH2)][dTrp(5-F)]KTC[2Nal]-NH2; disulfide 2-7), the IC50 at hSSTR1 is > 1000 nM; at hSSTR2 (setting [1]), 4.9 ± 1.5 nM; at hSSTR3, 50 ± 5.8 nM; on hSSTR4 it was 287 ± 64 nM; on hSSTR5 it was 94 ± 34 nM. For the same compound, at human sst2A receptor, the “sst2-internalization tested in vitro” value is “Antagonist”. Besides, the “Calcium release tested in vitro” value on sst2 is on record as “Antagonist”.

One may read the IC50 as the concentration at which inhibition is half-maximal.

The values above are taken from patent US8691761B2, “Somatostatin receptor 2 antagonists” (priority 2006, dated 2014).
